Laboratory results as given in patent publication US3939144A, “Manufacture of N-(benzenesulfonyl)-5-O-desosaminyl-erythromycilamine derivatives” (Pliva, Pharmaceutical and Chemical Works, priority 1974, dated 1976).
≈ marks a conversion by molar mass, not a printed value.

Legend:
Assay type in all cases: cell-based
Settings in all cases: compound alone
[1] = system: Strept.haem.; test: Preliminary bacteriological tests, MIC, Strept.haem.
[2] = system: E.coli 8141; test: Preliminary bacteriological tests, MIC, E.coli 8141
[3] = system: E.coli 7920; test: Preliminary bacteriological tests, MIC, E.coli 7920

Structure (SMILES) | MIC [1] | MIC [2] | MIC [3]
CCC1OC(=O)C(C)C(O)C(C)C(OC2OC(C)CC(N(C)C)C2O)C(C)(O)CC(C)C(NS(=O)(=O)c2ccc(Br)cc2)C(C)C(O)C1(C)O (stereo not drawn) [DEASBr, N-(4-bromo-benzenesulfonyl)-5 -O-desosaminyl-erythromycilamine] | 62.2 µg/mL (≈ 78.2 µM) | 500 µg/mL (≈ 628 µM) | 250 µg/mL (≈ 314 µM)
CCC1OC(=O)C(C)C(O)C(C)C(OC2OC(C)CC(N(C)C)C2O)C(C)(O)CC(C)C(NS(=O)(=O)c2ccc(Cl)cc2)C(C)C(O)C1(C)O (stereo not drawn) [DEASCl, N-(4-chloro-benzenesulfonyl)-5 -O-desosaminyl-erythromycilamine] | 125 µg/mL (≈ 166 µM) | 250 µg/mL (≈ 333 µM) | 250 µg/mL (≈ 333 µM)
CCC1OC(=O)C(C)C(O)C(C)C(OC2OC(C)CC(N(C)C)C2O)C(C)(O)CC(C)C(NS(=O)(=O)c2ccc(N)cc2)C(C)C(O)C1(C)O (stereo not drawn) [DEASNH2, N-(4-amino-benzenesulfonyl)-5-0-desosaminyl-erythromycilamine] | 62.2 µg/mL (≈ 85 µM) | 125 µg/mL (≈ 171 µM) | 125 µg/mL (≈ 171 µM)
CCC1OC(=O)C(C)C(O)C(C)C(OC2OC(C)CC(N(C)C)C2O)C(C)(O)CC(C)C(NS(=O)(=O)c2ccc(C)cc2)C(C)C(O)C1(C)O (stereo not drawn) [DEAST, N-(4-methyl-benzenesulfonyl)-5 -O-desosaminyl-erythromycilamine] | 62.2 µg/mL (≈ 85.1 µM) | 125 µg/mL (≈ 171 µM) | 125 µg/mL (≈ 171 µM)
